Data: ChEMBL document CHEMBL4325912, “Discovery of 2-(1H-imidazo-2-yl)piperazines as a new class of potent and non-cytotoxic inhibitors of Trypanosoma brucei growth in vitro” (Bioorg Med Chem Lett, 2018)
Active and inactive are the calls of the source. The rule behind the calls is not given here.

Tests used:
Trypanosoma brucei [1] = assay: Antitrypanosomal activity against Trypanosoma brucei Lister 427 bloodstream forms in presence of 10% FBS after 24 hrs by celltiter glo assay; assay type: functional, organism-based; settings: Lister 427, 24 h
[2] = Cytotoxicity against human HeLa cells assessed as reduction in cell viability after 72 hrs by celltiter glo assay; assay type: cell-based
[3] = molecular target: Class 1 histone deacetylase (Homo sapiens, UniProt Q13547+O15379+Q92769+Q9BY41); assay: Inhibition of HDAC class 1 in human HeLa cells after 4 hrs by spectrophotometric analysis; assay type: cell-based
Histone deacetylase 3 [4] = molecular target: T1, Histone deacetylase 3 (Homo sapiens, UniProt O15379); assay: Inhibition of human HDAC3
T1 sequence (O15379 whole entry): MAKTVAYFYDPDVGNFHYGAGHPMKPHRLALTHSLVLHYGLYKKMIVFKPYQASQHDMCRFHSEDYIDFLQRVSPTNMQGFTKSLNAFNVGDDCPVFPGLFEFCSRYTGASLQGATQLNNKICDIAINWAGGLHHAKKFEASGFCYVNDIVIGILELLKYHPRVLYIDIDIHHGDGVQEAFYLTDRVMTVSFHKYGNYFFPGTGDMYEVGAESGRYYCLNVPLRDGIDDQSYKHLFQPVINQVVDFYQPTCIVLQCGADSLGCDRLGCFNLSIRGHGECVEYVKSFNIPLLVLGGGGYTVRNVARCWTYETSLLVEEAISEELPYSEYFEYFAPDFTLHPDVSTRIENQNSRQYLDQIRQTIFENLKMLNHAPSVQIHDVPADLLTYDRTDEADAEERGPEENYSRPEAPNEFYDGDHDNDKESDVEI

Histone deacetylase 2 [5] = molecular target: T2, Histone deacetylase 2 (Homo sapiens, UniProt Q92769); assay: Inhibition of human HDAC2
T2 sequence (Q92769 whole entry): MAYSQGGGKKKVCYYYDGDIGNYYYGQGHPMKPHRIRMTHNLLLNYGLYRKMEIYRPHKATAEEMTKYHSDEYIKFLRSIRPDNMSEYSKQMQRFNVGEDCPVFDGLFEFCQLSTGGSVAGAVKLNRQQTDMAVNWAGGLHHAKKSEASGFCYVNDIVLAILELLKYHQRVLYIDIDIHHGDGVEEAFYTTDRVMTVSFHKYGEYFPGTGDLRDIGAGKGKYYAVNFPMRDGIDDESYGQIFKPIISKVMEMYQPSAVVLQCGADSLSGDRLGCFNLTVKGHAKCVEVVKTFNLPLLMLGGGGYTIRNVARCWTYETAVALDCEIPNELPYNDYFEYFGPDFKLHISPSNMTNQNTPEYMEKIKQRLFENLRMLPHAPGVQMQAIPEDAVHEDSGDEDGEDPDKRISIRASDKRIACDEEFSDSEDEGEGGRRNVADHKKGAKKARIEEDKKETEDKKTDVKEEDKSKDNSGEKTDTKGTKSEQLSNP

Histone deacetylase 1 [6] = molecular target: T3, Histone deacetylase 1 (Homo sapiens, UniProt Q13547); assay: Inhibition of human HDAC1 preincubated for 10 mins followed by BML-KI104 substrate addition and measured after 1 hr by spectrophotometric analysis
T3 sequence (Q13547 whole entry): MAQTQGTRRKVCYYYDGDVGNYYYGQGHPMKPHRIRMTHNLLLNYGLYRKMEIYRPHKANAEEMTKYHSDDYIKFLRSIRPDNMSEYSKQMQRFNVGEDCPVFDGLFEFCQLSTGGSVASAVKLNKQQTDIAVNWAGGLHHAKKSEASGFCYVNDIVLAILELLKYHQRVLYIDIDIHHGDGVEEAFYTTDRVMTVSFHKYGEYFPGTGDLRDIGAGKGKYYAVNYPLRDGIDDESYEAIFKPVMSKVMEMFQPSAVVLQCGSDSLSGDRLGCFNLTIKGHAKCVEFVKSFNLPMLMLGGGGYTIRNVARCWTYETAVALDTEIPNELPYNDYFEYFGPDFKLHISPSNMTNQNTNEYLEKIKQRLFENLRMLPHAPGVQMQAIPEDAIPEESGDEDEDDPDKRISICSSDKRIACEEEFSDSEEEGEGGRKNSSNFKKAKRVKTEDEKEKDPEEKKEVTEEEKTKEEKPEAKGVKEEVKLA

[7] = molecular target: Histone deacetylase 4 (Homo sapiens) (UniProt P56524); assay: Inhibition of human HDAC4 up to 5 uM
Chain of Histone deacetylase 4 (Homo sapiens) (P56524 whole entry): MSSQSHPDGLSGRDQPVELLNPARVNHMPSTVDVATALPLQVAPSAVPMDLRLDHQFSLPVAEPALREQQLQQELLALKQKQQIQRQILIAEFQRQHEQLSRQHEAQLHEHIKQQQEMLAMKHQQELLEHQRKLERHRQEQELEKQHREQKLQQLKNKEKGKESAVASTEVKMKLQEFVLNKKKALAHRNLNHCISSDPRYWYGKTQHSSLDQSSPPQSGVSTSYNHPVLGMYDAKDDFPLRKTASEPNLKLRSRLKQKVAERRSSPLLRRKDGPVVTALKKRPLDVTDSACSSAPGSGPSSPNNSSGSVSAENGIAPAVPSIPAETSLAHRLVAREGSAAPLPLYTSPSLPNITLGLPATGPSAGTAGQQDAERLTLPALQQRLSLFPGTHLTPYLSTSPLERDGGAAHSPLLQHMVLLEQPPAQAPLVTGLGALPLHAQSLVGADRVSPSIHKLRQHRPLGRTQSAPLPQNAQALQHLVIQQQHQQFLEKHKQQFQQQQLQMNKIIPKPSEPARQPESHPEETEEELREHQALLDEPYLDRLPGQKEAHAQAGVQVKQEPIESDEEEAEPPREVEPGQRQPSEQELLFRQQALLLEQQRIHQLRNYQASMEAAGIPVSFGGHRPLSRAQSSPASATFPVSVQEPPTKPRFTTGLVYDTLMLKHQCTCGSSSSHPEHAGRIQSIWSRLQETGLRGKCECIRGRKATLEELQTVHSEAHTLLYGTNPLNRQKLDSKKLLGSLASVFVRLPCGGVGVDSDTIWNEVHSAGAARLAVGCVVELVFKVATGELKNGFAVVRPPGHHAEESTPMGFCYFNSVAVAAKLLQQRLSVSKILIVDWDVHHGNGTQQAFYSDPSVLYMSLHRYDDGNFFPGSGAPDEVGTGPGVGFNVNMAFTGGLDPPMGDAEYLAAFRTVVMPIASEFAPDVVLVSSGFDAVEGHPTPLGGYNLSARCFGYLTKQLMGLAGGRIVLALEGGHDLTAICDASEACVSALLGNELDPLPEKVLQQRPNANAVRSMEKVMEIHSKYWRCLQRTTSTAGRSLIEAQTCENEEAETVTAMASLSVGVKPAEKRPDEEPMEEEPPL

[8] = molecular target: Histone deacetylase 5 (Homo sapiens) (UniProt Q9UQL6); assay: Inhibition of human HDAC5 up to 5 uM
Chain of Histone deacetylase 5 (Homo sapiens) (Q9UQL6 whole entry): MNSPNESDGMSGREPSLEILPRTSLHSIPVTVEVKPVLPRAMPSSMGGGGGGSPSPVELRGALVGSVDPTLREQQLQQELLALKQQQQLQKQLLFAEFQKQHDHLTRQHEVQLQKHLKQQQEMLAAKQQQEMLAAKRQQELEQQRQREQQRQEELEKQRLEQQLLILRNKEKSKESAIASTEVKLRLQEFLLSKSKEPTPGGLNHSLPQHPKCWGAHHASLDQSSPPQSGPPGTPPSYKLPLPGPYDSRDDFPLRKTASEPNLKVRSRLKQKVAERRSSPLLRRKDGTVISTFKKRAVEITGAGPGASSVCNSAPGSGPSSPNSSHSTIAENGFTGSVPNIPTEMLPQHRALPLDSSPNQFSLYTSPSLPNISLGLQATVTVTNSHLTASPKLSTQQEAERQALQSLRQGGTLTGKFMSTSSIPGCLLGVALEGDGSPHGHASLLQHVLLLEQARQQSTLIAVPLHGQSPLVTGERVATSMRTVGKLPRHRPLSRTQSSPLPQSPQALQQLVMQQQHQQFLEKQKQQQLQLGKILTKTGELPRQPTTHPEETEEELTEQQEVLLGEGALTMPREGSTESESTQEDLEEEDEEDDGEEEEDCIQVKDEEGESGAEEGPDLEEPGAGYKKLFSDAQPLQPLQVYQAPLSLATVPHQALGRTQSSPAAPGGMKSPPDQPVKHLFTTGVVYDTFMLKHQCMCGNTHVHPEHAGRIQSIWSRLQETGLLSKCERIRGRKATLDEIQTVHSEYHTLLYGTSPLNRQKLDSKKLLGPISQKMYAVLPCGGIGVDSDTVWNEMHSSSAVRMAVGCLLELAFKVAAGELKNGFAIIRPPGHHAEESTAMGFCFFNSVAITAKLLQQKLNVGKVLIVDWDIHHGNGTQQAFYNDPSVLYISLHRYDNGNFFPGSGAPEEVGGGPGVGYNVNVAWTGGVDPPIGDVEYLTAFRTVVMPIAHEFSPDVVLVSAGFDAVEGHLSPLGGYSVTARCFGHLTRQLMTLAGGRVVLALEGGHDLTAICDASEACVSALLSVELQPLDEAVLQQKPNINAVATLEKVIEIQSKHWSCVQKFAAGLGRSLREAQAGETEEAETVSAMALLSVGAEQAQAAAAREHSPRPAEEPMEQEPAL

Histone deacetylase 1 [9] = molecular target: T3, Histone deacetylase 1; assay: Inhibition of human HDAC1 up to 5 uM preincubated for 10 mins followed by BML-KI104 substrate addition and measured after 1 hr by spectrophotometric analysis
[10] = molecular target: T4, Histone deacetylase 8 (Homo sapiens) (UniProt Q9BY41); assay: Inhibition of human HDAC8 up to 5 uM
T4 sequence (whole entry): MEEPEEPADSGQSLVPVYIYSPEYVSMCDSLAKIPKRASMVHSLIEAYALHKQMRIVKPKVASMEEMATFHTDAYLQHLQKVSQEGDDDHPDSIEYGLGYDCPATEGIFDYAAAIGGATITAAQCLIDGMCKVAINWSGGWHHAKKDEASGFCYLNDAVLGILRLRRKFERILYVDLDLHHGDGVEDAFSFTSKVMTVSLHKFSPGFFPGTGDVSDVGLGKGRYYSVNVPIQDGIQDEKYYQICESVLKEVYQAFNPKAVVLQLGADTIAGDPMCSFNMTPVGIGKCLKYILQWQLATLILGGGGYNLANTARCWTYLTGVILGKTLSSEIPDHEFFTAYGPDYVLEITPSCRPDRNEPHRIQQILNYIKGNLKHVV

Histone deacetylase 2 [11] = molecular target: T2, Histone deacetylase 2; assay: Inhibition of human HDAC2 up to 5 uM
[12] = molecular target: T5, Protein deacetylase HDAC6 (Homo sapiens) (UniProt Q9UBN7); assay: Inhibition of human HDAC6 up to 5 uM
T5 sequence (whole entry): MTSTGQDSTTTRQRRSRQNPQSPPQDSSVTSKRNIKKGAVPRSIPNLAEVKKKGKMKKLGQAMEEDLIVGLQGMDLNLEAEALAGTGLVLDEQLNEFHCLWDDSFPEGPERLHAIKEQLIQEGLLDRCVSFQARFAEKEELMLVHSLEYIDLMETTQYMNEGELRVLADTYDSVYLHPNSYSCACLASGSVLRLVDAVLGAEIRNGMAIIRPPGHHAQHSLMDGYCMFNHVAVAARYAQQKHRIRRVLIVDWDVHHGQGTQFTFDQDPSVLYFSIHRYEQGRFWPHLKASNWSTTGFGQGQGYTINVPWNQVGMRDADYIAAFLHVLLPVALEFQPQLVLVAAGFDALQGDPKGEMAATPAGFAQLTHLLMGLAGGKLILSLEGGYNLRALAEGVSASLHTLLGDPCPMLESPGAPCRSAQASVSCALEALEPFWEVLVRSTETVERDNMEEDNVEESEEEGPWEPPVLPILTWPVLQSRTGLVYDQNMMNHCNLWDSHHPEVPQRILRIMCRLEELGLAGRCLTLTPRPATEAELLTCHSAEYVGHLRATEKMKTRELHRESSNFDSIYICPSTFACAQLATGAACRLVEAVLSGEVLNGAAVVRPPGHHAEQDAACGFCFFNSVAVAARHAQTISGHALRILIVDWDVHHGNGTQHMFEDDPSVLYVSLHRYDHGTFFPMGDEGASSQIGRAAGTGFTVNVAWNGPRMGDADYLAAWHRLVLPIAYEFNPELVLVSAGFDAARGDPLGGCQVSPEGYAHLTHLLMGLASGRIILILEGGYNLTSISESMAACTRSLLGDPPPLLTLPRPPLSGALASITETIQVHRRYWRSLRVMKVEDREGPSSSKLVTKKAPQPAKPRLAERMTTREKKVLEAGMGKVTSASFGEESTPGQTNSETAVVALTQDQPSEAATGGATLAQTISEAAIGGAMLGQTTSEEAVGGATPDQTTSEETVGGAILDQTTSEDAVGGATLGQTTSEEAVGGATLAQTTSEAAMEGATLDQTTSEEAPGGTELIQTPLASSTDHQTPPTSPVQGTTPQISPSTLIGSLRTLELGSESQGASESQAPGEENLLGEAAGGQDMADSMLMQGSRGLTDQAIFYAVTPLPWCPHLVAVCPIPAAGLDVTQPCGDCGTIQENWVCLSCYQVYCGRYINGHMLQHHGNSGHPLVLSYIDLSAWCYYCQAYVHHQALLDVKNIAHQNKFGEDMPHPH

Histone deacetylase 3 [13] = molecular target: T1, Histone deacetylase 3; assay: Inhibition of human HDAC3 up to 5 uM
[14] = molecular target: Histone deacetylase 9 (Homo sapiens) (UniProt Q9UKV0); assay: Inhibition of human HDAC9 up to 5 uM
Chain of Histone deacetylase 9 (Homo sapiens) (Q9UKV0 whole entry): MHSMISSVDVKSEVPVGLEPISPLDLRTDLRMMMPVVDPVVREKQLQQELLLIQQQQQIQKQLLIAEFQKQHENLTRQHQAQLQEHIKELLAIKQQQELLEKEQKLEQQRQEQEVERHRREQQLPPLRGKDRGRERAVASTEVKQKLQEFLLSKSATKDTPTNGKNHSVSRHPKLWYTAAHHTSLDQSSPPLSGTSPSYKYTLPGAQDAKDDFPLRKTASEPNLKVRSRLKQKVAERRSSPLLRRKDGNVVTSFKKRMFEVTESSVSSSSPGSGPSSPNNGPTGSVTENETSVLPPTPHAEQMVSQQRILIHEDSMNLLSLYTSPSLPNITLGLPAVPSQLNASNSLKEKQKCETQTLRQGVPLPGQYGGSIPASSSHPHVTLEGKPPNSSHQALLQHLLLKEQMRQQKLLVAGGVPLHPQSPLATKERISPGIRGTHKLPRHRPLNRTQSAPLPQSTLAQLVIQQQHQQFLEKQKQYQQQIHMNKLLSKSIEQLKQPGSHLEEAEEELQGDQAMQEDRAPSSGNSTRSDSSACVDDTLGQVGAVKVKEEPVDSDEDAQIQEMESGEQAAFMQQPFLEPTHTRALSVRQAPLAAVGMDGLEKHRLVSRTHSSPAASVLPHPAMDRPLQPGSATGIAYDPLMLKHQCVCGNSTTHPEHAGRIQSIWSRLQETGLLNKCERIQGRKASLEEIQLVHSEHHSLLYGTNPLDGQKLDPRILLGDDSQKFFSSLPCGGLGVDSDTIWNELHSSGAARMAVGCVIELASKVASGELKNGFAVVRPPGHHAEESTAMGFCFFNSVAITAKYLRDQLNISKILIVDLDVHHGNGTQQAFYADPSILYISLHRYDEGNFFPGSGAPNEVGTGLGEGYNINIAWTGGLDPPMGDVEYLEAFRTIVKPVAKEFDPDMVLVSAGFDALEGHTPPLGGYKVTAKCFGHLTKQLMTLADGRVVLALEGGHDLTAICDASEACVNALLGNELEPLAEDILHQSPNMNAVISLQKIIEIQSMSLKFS

[15] = molecular target: T6, Histone deacetylase 7 (Homo sapiens) (UniProt Q8WUI4); assay: Inhibition of human HDAC7 up to 5 uM
T6 sequence (whole entry): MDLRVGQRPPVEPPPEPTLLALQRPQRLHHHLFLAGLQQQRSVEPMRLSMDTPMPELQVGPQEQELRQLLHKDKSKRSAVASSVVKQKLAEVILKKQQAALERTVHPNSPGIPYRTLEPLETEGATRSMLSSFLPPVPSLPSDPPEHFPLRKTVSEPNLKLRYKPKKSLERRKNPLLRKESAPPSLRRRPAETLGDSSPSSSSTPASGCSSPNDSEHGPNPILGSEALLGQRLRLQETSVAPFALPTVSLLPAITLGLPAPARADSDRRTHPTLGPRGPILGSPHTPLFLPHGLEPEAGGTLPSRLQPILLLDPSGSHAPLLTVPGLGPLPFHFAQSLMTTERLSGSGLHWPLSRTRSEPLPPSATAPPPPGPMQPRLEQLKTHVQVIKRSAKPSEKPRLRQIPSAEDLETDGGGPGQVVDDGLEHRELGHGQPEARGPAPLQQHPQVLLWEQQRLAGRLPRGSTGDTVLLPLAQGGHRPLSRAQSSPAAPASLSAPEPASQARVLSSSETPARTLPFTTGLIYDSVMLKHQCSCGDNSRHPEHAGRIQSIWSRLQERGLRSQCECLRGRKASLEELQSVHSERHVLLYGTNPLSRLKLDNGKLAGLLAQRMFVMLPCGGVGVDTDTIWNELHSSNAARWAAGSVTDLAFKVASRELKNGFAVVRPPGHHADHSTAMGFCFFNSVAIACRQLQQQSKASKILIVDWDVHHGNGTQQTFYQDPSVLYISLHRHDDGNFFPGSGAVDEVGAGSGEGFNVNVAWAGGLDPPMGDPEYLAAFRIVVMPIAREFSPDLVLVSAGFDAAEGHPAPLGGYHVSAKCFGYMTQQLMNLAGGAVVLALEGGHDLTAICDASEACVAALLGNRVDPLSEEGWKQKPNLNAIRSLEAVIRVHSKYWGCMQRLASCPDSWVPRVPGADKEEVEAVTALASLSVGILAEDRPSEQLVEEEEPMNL

Trypanosoma brucei [16] = assay: Inhibition of Trypanosoma brucei GSK3
Trypanosoma brucei [17] = assay: Inhibition of Trypanosoma brucei adenosine kinase
Trypanosoma brucei [18] = assay: Inhibition of Trypanosoma brucei Aurora 1 kinase
Trypanosoma brucei [19] = assay: Inhibition of Trypanosoma brucei trypanothione reductase

Structure (SMILES) | EC50 (Trypanosoma brucei [1]) [nM] | CC50 at 72 h [2] [nM] | further results
CCC(=O)CCCN1CCN(S(=O)(=O)c2ccccc2)C(c2ncc(-c3ccc4ccccc4c3)[nH]2)C1 (stereo not drawn) | 4120 | > 25000 | 
COc1ccc2[nH]c(C)c(CC(=O)N3CCN(CCCC(C)O)CC3c3ncc(-c4ccc5ccccc5c4)[nH]3)c2c1 (stereo not drawn) | 13 | 13100 | 
CCC(=O)CCCN1CCN(C(=O)Cc2c[nH]c3ccccc23)[C@H](c2ncc(-c3ccc4ccccc4c3)[nH]2)C1 | 423 | > 25000 | 
CCC(=O)CCCN1CCN(C(=O)Cc2c[nH]c3ccccc23)C(c2ncc(-c3ccc4ccccc4c3)[nH]2)C1 (stereo not drawn) | 489 | > 25000 | IC50 [3]: > 25000 nM; IC50 (Histone deacetylase 3 [4]): > 25000 nM; IC50 (Histone deacetylase 2 [5]): > 25000 nM; IC50 (Histone deacetylase 1 [6]): > 25000 nM
CCC(=O)CCCN1CCN(C(=O)Nc2ccccc2)C(c2ncc(-c3ccc4ccccc4c3)[nH]2)C1 (stereo not drawn) | 1430 | > 25000 | 
CCC(=O)CCCN1CCN(C(=O)Cc2c(C)[nH]c3ccc(OC)cc23)C(c2ncc(-c3ccc4ccccc4c3)[nH]2)C1 (stereo not drawn) | 10 | 12300 | inhibition [7]: inactive; inhibition [8]: inactive; inhibition (Histone deacetylase 1 [9]): inactive; inhibition [10]: inactive; inhibition (Histone deacetylase 2 [11]): inactive; inhibition [12]: inactive; inhibition (Histone deacetylase 3 [13]): inactive; inhibition [14]: inactive; inhibition [15]: inactive
CCCCCCN1CCN(C(=O)Cc2c(C)[nH]c3ccc(OC)cc23)C(c2ncc(-c3ccc4ccccc4c3)[nH]2)C1 (stereo not drawn) | 79 | > 25000 | 
CCC(=O)CCCN1CCN(C(=O)Cc2c[nH]c3ncccc23)C(c2ncc(-c3ccc4ccccc4c3)[nH]2)C1 (stereo not drawn) | 545 | > 25000 | 
CNC(=O)CCCN1CCN(C(=O)Cc2c(C)[nH]c3ccc(OC)cc23)C(c2ncc(-c3ccc4ccccc4c3)[nH]2)C1 (stereo not drawn) | 148 | > 5000 | 
CCC(=O)CCCN1CCN(C(=O)Cc2ccccc2)C(c2ncc(-c3ccc4ccccc4c3)[nH]2)C1 (stereo not drawn) | 1800 | > 25000 | 
CCC(=O)CCCN1CCN(C(C)=O)C(c2ncc(-c3ccc4ccccc4c3)[nH]2)C1 (stereo not drawn) | > 25000 | > 32000 | 
CCC(=O)CCCN1CCN(C(=O)c2ccccc2)C(c2ncc(-c3ccc4ccccc4c3)[nH]2)C1 (stereo not drawn) | 1560 | > 32000 | 
COc1ccc2[nH]c(C)c(CC(=O)N3CCN(C)CC3c3ncc(-c4ccc5ccccc5c4)[nH]3)c2c1 (stereo not drawn) | 38 | > 25000 | inhibition (Trypanosoma brucei [16]): inactive; inhibition (Trypanosoma brucei [17]): inactive; inhibition (Trypanosoma brucei [18]): inactive; inhibition (Trypanosoma brucei [19]): inactive
COc1ccc2[nH]c(C)c(CC(=O)N3CCN(CCCC(=O)O)CC3c3ncc(-c4ccc5ccccc5c4)[nH]3)c2c1 (stereo not drawn) | 1100 | > 50000 | 
COc1ccc2[nH]c(C)c(CC(=O)N3CCN(CCCC(N)=O)CC3c3ncc(-c4ccc5ccccc5c4)[nH]3)c2c1 (stereo not drawn) | 207 | > 25000 | 
CCC(=O)CCCN1CCN(C(=O)Cc2c(C)[nH]c3ccc(OC)cc23)C(c2nnc(-c3ccc4ccccc4c3)o2)C1 (stereo not drawn) | 304 | > 25000 | 
CCC(=O)CCCN1CCN(C(=O)Cc2c(C)[nH]c3ccc(OC)cc23)C(c2ncc(-c3ccc4ccccc4c3)o2)C1 (stereo not drawn) | 1260 | 20600 | 
CCC(=O)CCCN1CCN(Cc2ccccc2)C(c2ncc(-c3ccc4ccccc4c3)[nH]2)C1 (stereo not drawn) | 1720 | 14700 | 
CCC(=O)CCCN1CCN(C(=O)Cc2c[nH]c3ccccc23)[C@@H](c2ncc(-c3ccc4ccccc4c3)[nH]2)C1 | 4360 | > 32000 | 
CCC(=O)CCCN1CCN(C(=O)Oc2ccccc2)C(c2ncc(-c3ccc4ccccc4c3)[nH]2)C1 (stereo not drawn) | 1220 | 16600 | 
COC(=O)CCCN1CCN(C(=O)Cc2c(C)[nH]c3ccc(OC)cc23)C(c2ncc(-c3ccc4ccccc4c3)[nH]2)C1 (stereo not drawn) | 154 | 28800 | 
CCC(=O)CCC(=O)N1CCN(C(=O)Cc2c(C)[nH]c3ccc(OC)cc23)C(c2ncc(-c3ccc4ccccc4c3)[nH]2)C1 (stereo not drawn) | 492 | > 25000 | 
COc1ccc2[nH]c(C)c(CC(=O)N3CCN(CC4CC4)CC3c3ncc(-c4ccc5ccccc5c4)[nH]3)c2c1 (stereo not drawn) | 16 | > 25000 | 
